# Measured values as given in US7960398B2, “Regulation of TNF-alpha” (Vertex Pharmaceuticals Incorporated, priority 2002, dated 2011).
# Tested on: TNF-alpha
# Test: Inhibition of TNF Release From Whole Blood
# Assay type: cell-based
# Conditions: human whole blood diluted 1:2 in PBS, LPS 5 ng/ml, incubated at 37° C. overnight, TNF-alpha in supernatants by ELISA
# Protocol: Human blood was freshly drawn from healthy donors and collected in vacutainers. Blood was diluted 1:2 in PBS (tissue culture, pyrogen free) in a sterile bottle and inverted to mix well. Aliquots of 0.5 ml of blood mixture were dispensed into cluster tubes in 96 well format.
# Dilutions of the test compounds were prepared in RPMI by taking 100 mM DMSO stocks of the compounds and diluting 1:10 in RPMI medium in eppendorfs, to give a 10 mM stock. 1:5 serial dilutions were prepared from the stock solutions.
# LPS was kept at a frozen stock (−20 degrees C.) at 1 mg/ml in PBS and then diluted to 1:10 with RPMI medium and finally diluted in the medium again 1:350. 50 μl of each test compound (first concentration was 100 uM) were added to the blood samples and then stimulated with 10 μl LPS (final concentration in the well is 5 ng/ml). The contents were gently mixed using an 8 well multi-channel pipette and incubated at 37° C. overnight. At the end of the incubation time, contents were gently mixed, then spun down at 1000×g for 5 mins at 20° C. The serum supernatants were transferred to a fresh plate without disturbing the RBCs and diluted 1:2 with the diluent RD6C.
# TNF-alpha levels of supernatants were assayed using the R+D systems ELISA kit, using R+D systems protocol. Samples were read at 450 nm. The compounds shown in Table 1 were tested in the above assay. In this TNF-alpha assay, category “A” indicates an IC50 value of <500 nM. Category “B” indicates an IC50 value of 500-1000 nM. […] Category “D” indicates an IC50 value of >2000 nM.
row,SMILES,IC50
1,C[C@@H](C(=O)NC(CC(=O)O)C(=O)CF)n1ccc2ccccc2c1=O (stereo partly shown),1000 to 2000 nM
2,CC(C)[C@@H](C(=O)NC(CC(=O)O)C(=O)CF)n1cnc2ccccc2c1=O (stereo partly shown),500 to 1000 nM
3,O=C(O)CC(NC(=O)[C@@H]1CCCCN1C(=O)OCc1cc(Cl)cc(Cl)c1)C(=O)CF (stereo partly shown),1000 to 2000 nM
4,CC[C@@H](C(=O)NC(CC(=O)O)C(=O)CF)n1ccc2ccc(Cl)cc2c1=O (stereo partly shown),< 500 nM
5,CC[C@@H](C(=O)NC(CC(=O)O)C(=O)CF)n1cnc2ccc(Cl)cc2c1=O (stereo partly shown),< 500 nM
6,CC[C@@H](C(=O)NC(CC(=O)O)C(=O)CF)n1cnc2ccc(Oc3ccccc3)cc2c1=O (stereo partly shown),500 to 1000 nM
7,CC[C@@H](C(=O)N[C@@H](CC(=O)O)C(=O)COc1c(F)c(F)cc(F)c1F)n1cnc2ccc(Cl)cc2c1=O,1000 to 2000 nM
8,O=C(O)CC(NC(=O)[C@@H]1CCCCN1C(=O)OCc1cccc(Cl)c1F)C(=O)CF (stereo partly shown),< 500 nM
9,O=C(O)CC(NC(=O)[C@@H]1CCCCN1C(=O)OCc1cc(F)ccc1F)C(=O)CF (stereo partly shown),< 500 nM
10,CC[C@@H](C(=O)NC(CC(=O)O)C(=O)CF)n1cnc2ccc(Oc3cccc(Cl)c3)cc2c1=O (stereo partly shown),> 2000 nM
11,CC[C@@H](C(=O)NC(CC(=O)O)C(=O)CF)n1cnc2ccc(Oc3cccc(F)c3)cc2c1=O (stereo partly shown),> 2000 nM
12,CC[C@@H](C(=O)NC(CC(=O)O)C(=O)CF)n1ccc2ccc(-c3ccccc3)cc2c1=O (stereo partly shown),< 500 nM
13,CC[C@@H](C(=O)N[C@@H](CC(=O)O)C(=O)COc1c(F)c(F)cc(F)c1F)n1ccc2ccccc2c1=O,500 to 1000 nM
14,O=C(O)C[C@H](NC(=O)[C@@H]1CCCCN1C(=O)OCc1cc(Cl)ccc1F)C(=O)COc1c(F)c(F)cc(F)c1F,> 2000 nM
15,CCC[C@@H](C(=O)NC(CC(=O)O)C(=O)CF)n1cnc2ccccc2c1=O (stereo partly shown),< 500 nM
16,CC(C)[C@H](NC(=O)OCc1ccccc1)C(=O)NC(CC(=O)O)C(=O)CF (stereo partly shown),< 500 nM
17,O=C(O)CC(NC(=O)[C@@H]1CCCc2cc3ccccc3c(=O)n21)C(=O)CF (stereo partly shown),< 500 nM
18,CC(C)[C@H](OC(=O)Nc1ccccc1)C(=O)NC(CC(=O)O)C(=O)CF (stereo partly shown),< 500 nM
19,C[C@H](OC(=O)Nc1ccccc1)C(=O)NC(CC(=O)O)C(=O)CF (stereo partly shown),500 to 1000 nM
20,O=C(O)CC(NC(=O)[C@@H]1CCCCN1C(=O)N1c2ccccc2Sc2ccc(Cl)cc21)C(=O)CF (stereo partly shown),500 to 1000 nM
21,O=C(O)CC(NC(=O)[C@@H]1CCCCN1C(=O)O[C@H](c1ccccc1)C(F)(F)F)C(=O)CF (stereo partly shown) [drawing 65],< 500 nM
22,O=C(O)CC(NC(=O)[C@@H]1CCCCN1C(=O)OCc1cc(Cl)ccc1F)C(=O)CF (stereo partly shown) [drawing 70],< 500 nM

# More lines, now with the values ahead:
row,IC50,SMILES
1,1000 to 2000 nM,CC[C@@H](C(=O)NC(CC(=O)O)C(=O)COc1c(F)c(F)cc(F)c1F)n1cnc2ccccc2c1=O (stereo partly shown)
2,< 500 nM,CCC[C@@H](C(=O)NC(CC(=O)O)C(=O)CF)n1ccc2ccccc2c1=O (stereo partly shown)
3,< 500 nM,Cc1ccccc1COC(=O)N1CCCC[C@H]1C(=O)NC(CC(=O)O)C(=O)CF (stereo partly shown)
4,> 2000 nM,CC[C@@H](C(=O)NC(CC(=O)O)C(=O)CF)n1cnc2ccc(Oc3ccccc3Cl)cc2c1=O (stereo partly shown)
5,1000 to 2000 nM,CC[C@@H](C(=O)NC(CC(=O)O)C(=O)CF)n1cnc2ccc(Sc3cccc(F)c3)cc2c1=O (stereo partly shown)
6,500 to 1000 nM,CC[C@@H](C(=O)NC(CC(=O)O)C(=O)CF)n1ccc2ccc(C(F)(F)F)cc2c1=O (stereo partly shown)
7,500 to 1000 nM,Cc1cccc(COC(=O)N2CCCC[C@H]2C(=O)NC(CC(=O)O)C(=O)CF)c1 (stereo partly shown)
8,> 2000 nM,CC[C@@H](C(=O)N[C@@H](CC(=O)O)C(=O)COP(=O)(c1ccccc1)c1ccccc1)n1cnc2ccccc2c1=O
9,1000 to 2000 nM,CC[C@@H](C(=O)NC(CC(=O)O)C(=O)COc1c(F)c(F)cc(F)c1F)n1ccc2ccc(Cl)cc2c1=O (stereo partly shown)
10,< 500 nM,CCCSc1ccc2ncn([C@@H](CC)C(=O)NC(CC(=O)O)C(=O)CF)c(=O)c2c1 (stereo partly shown)
11,< 500 nM,CC[C@H](NC(=O)c1ncc[nH]1)C(=O)NC(CC(=O)O)C(=O)CF (stereo partly shown)
12,< 500 nM,CC[C@@H](C(=O)NC(CC(=O)O)C(=O)CF)n1cnc2ccccc2c1=O (stereo partly shown)
13,< 500 nM,Cc1c(C(=O)N[C@H](C(=O)NC(CC(=O)O)C(=O)CF)C(C)C)n(C)c2ccccc12 (stereo partly shown)
14,< 500 nM,O=C(O)CC(NC(=O)[C@@H]1CCCCN1C(=O)c1sc2ccccc2c1Cl)C(=O)CF (stereo partly shown)
15,500 to 1000 nM,O=C(O)CC(NC(=O)[C@@H]1CCCc2nc3ccccc3c(=O)n21)C(=O)CF (stereo partly shown)
16,> 2000 nM,O=C(O)CC(NC(=O)[C@@H]1CCCCN1C(=O)N1c2ccccc2Sc2ccc(C(F)(F)F)cc21)C(=O)CF (stereo partly shown)
17,< 500 nM,C[C@@H](C(=O)NC(CC(=O)O)C(=O)CF)n1cnc2ccccc2c1=O (stereo partly shown) [drawing 34]
18,1000 to 2000 nM,CC(C)[C@H](OC(=O)n1c2ccccc2c2ccccc21)C(=O)NC(CC(=O)O)C(=O)CF (stereo partly shown) [drawing 36]
19,< 500 nM,O=C(O)CC(NC(=O)[C@@H]1CCCCN1C(=O)O[C@H](c1ccccc1)C(F)(F)F)C(=O)CF (stereo partly shown) [drawing 37]
20,> 2000 nM,O=C(O)CC(NC(=O)[C@@H]1CCCCN1C(=O)c1ccc(-c2cccc(C(F)(F)F)c2)o1)C(=O)CF (stereo partly shown) [drawing 39]
21,< 500 nM,O=C(O)CC(NC(=O)[C@@H]1CCCCN1C(=O)OCc1cc(Cl)ccc1F)C(=O)CF (stereo partly shown) [drawing 40]
22,< 500 nM,C[C@@H](C(=O)NC(CC(=O)O)C(=O)CF)n1cnc2ccccc2c1=O (stereo partly shown) [drawing 66]
23,1000 to 2000 nM,CC(C)[C@H](OC(=O)n1c2ccccc2c2ccccc21)C(=O)NC(CC(=O)O)C(=O)CF (stereo partly shown) [drawing 76]
24,> 2000 nM,O=C(O)CC(NC(=O)[C@@H]1CCCCN1C(=O)c1ccc(-c2cccc(C(F)(F)F)c2)o1)C(=O)CF (stereo partly shown) [drawing 78]
